Five compounds from ChEMBL document CHEMBL3813607, “New antitumour agents with α,β-unsaturated δ-lactone scaffold: Synthesis and antiproliferative activity of (-)-cleistenolide and analogues” (Bioorg Med Chem Lett, 2016) can be followed below.

Structures are written as SMILES.

The nature of assay [1]: Cytotoxicity against human HL60 cells assessed as cell growth inhibition after 72 hrs by MTT assay. The assay is classed as functional, cell-based. As to conditions: HL-60, 72 h. A general note: Tetrazolium dyes change colour on reduction, which living cells bring about.
The subject of a further assay is MRC5. Kind of assay: Cytotoxicity against human MRC5 cells assessed as cell growth inhibition after 72 hrs by MTT assay. In kind it is functional, cell-based. As to conditions: MRC5, 72 h.
Assay [2] deals with MDA-MB-231. In words: Cytotoxicity against human MDA-MB-231 cells assessed as cell growth inhibition after 72 hrs by MTT assay. In kind it is functional, cell-based. Particulars: MDA-MB-231, 72 h.
Another assay deals with MCF7. Kind of assay: Cytotoxicity against human MCF7 cells assessed as cell growth inhibition after 72 hrs by MTT assay. Particulars: MCF7, 72 h. In kind it is functional, cell-based.
Another assay relates to Jurkat. In words: Cytotoxicity against human Jurkat cells assessed as cell growth inhibition after 72 hrs by MTT assay. In kind it is functional, cell-based.
Assay [3] relates to A549. Kind of assay: Cytotoxicity against human A549 cells assessed as cell growth inhibition after 72 hrs by MTT assay. In kind it is functional, cell-based. As to conditions: A549, 72 h.
For the next assay, the system named is HeLa. In words: Cytotoxicity against human HeLa cells assessed as cell growth inhibition after 72 hrs by MTT assay. The assay is classed as functional, cell-based.
A further assay concerns Raji. Kind of assay: Cytotoxicity against human Raji cells assessed as cell growth inhibition after 72 hrs by MTT assay. In kind it is functional, cell-based.
The test system of a further assay is K562. In words: Cytotoxicity against human K562 cells assessed as cell growth inhibition after 72 hrs by MTT assay. The assay is classed as functional, cell-based. Particulars: K562, 72 h.
Assay [4] has as its system A549. Kind of assay: Potency index, ratio of Doxorubicin IC50 to ratio of compound IC50 for human A549 cells. The assay is classed as functional.
Assay [5] has as its system MDA-MB-231. Kind of assay: Potency index, ratio of Doxorubicin IC50 to ratio of compound IC50 for human MDA-MB-231 cells. The assay is classed as functional.

By IC50 is commonly meant the midpoint of a concentration-inhibition curve. As for `COc1cccc(C(=O)OC[C@@H](OC(C)=O)[C@H]2OC(=O)C=C[C@H]2OC(C)=O)c1`, the IC50 amounted to 0.89 µM in assay [1]; 91.3 µM with MRC5; 7.46 µM in the assay on MDA-MB-231 [2]; 4.71 µM with MCF7; 8.31 µM in the assay with Jurkat; 11 µM in the assay on A549 [3]. In addition, the IC50 came to 1.95 µM in the assay with HeLa, 25.6 µM in the assay with Raji and 2.69 µM in the assay on K562.

`CC(=O)O[C@@H]1C=CC(=O)O[C@@H]1[C@@H](COC(=O)/C=C/c1ccccc1)OC(C)=O`: the IC50 in [1] is 24.6 µM; in the assay on MRC5, over 100 µM; with MDA-MB-231 [2], 1.46 µM; with MCF7, 16 µM; with Jurkat, 0.25 µM; in the assay with A549 [3], 2.02 µM. In addition, the IC50 was 0.21 µM with HeLa, 11.2 µM with Raji and 0.28 µM with K562. Further, in the assay on A549 [4], the “Ratio IC50” value is 2.5.

For `CC(=O)O[C@@H]1C=CC(=O)O[C@@H]1[C@@H](COC(=O)c1c(Cl)cc(Cl)cc1Cl)OC(C)=O`, in the assay on MDA-MB-231 [5], the “Ratio IC50” value turned out to be 4.5. The IC50 was determined as 36.2 µM in assay [1]; 45.7 µM with MRC5; 0.02 µM in the assay with MDA-MB-231 [2]; 0.62 µM in the assay on MCF7; 6.25 µM with Jurkat; 4.23 µM with A549 [3]. Besides, the IC50 in the assay with HeLa is 14 µM; in the assay on Raji it was 11.2 µM; with K562, 1.02 µM.

For `COc1cccc2c1C(=O)c1c(O)c3c(c(O)c1C2=O)C[C@@](O)(C(=O)CO)C[C@@H]3O[C@H]1C[C@H](N)[C@H](O)[C@H](C)O1` [DOXORUBICIN], the IC50 in assay [1] came to 0.92 µM.

`CC(=O)O[C@@H]1C=CC(=O)O[C@@H]1[C@@H](COC(=O)c1ccccc1)OC(C)=O`: the IC50 in assay [1] is 1.21 µM; in the assay with MRC5, over 100 µM; with MDA-MB-231 [2], 2.25 µM; in the assay on MCF7, 26.1 µM; in the assay on Jurkat it was 14.2 µM; with A549 [3], 16.3 µM. Besides, the results for the IC50 with HeLa, in the assay with Raji and in the assay with K562 were 7.32 µM, 36.9 µM and 7.65 µM, respectively.
